Measured values taken from paper PMC12165799, “Antimicrobial peptide developed with machine learning sequence optimization targets drug resistant Staphylococcus aureus in mice” (The Journal of Clinical Investigation, 2025).

Columns and labels:
[1] = tested on: S. aureus MW2 (MRSA) exponential and persister cells; assay: S. aureus persister cell and time-kill assays (MW2); type: cell-based, Staphylococcus aureus; conditions: within 120 minutes; ciprofloxacin 10 μg/mL, bithionol 10 μg/mL
Description: (§1) 305 Minimal inhibitory concentration (MIC) assay
(§2) We made serial dilutions of 10×
(§3) We determined the MIC using OD600
(§4) Accordingly, we added 150 mM NaCl,
(§5) 319 established protocol (5).
(§6) 323 aureus VRS1) in PBS. To assess the killing kinetics of CIT-8 in persister cells, we added 1 ml of
(§7) 324 cell suspension to the wells of a 2-ml deep-well assay block (Cat no. 3960, Corning, NY, USA)
(§8) We also included ciprofloxacin (at 10 μg/ml) for S.
(§9) 326 aureus MW2 and linezolid (100 μg/ml) for S. aureus VRS1 as antibiotic controls. Additionally,
(§10) 327 we included bithionol (at 10 μg/ml) as a positive control, known for its ability to kill stationary
(§11) 328 phase persister cells (6). We incubated the plates at 37°C, with shaking at 225 rpm. At specific
(§12) 329 times (0, 15, 30, 60, and 120 min), we collected 10 μl samples, diluted them serially, and then
(§13) 330 plated them on tryptic soy agar (TSA) (BD Difco, NJ, USA) plates. We incubated the TSA plates
(§14) 331 for 18 hours at 37°C for colony counting. We performed these experiments in duplicate. As a
(§15) 332 comparison, we prepared the exponential cells of S. aureus MW2 and VRS1 in PBS and analyzed
(§16) 333 their killing kinetics in the same manner as described for persister cells.

[2] = tested on: S. aureus VRS1 (VRSA) exponential and persister cells; assay: S. aureus persister cell and time-kill assays (VRS1); type: cell-based, Staphylococcus aureus; conditions: within 120 minutes; bithionol 10 μg/mL, linezolid 100 μg/mL
Description: as §1, §2, §3, §4, §5, §6, §7, §8, §9, §10, §11, §12, §13, §14, §15, §16

HepG2 cells = assay: Mammalian cell cytotoxicity assay
Description: 410 the HepG2 cells at 37°C in 5% CO2 in Dulbecco’s Modified Eagle Medium (DMEM) (Gibco, MA,
We harvested and resuspended cells in fresh DMEM

[3] = tested on: S. aureus MW2 skin infection; assay: Skin-abraded murine infection, prophylactic (acute) model, bacterial load; type: in vivo, mice; conditions: for Bacterial load from skin specimens, prophylactic model: 2% ointment 10 minutes after infection
Description: (§17) 599 In vivo murine skin infection and treatment
(§18) 600 We used a topical skin-abraded murine infection model with minor modifications to test
(§19) 601 the in vivo efficacy of the CIT-8 peptide (25). We performed all mouse studies following the
(§20) 602 protocol approved by the Institutional Animal Care and Use Committee. In brief, we anesthetized
(§21) 603 female C57BL/6 mice (6 weeks) (Jackson Laboratory, Bar Harbor, ME, USA) with ketamine-
(§22) 604 xylazine (90 mg/kg ketamine and 10 mg/kg xylazine) via intraperitoneal injection. We shaved the
(§23) 605 dorsal side of the mice in the middle of the back (area=2 cm2). To disrupt skin integrity, we tape-
(§24) 606 stripped with Tensoplast® seven times in succession, replacing the tape each time, resulting in
(§25) 607 visibly damaged skin. We infected the damaged skin area with 1 × 10^7 CFU of S. aureus MW2
(§26) 608 (exponential phase bacteria in PBS) with an inoculum of 50 µl using a pipette tip. Ten minutes
(§27) 609 (prophylactic model) and 24 h (established model) after bacterial inoculation, we applied 30 mg
(§28) 610 of 1 and 2% (w/w) CIT-8 ointment in a white petroleum jelly base (Cat no. 19-090-843, Fisher
(§29) 611 Scientific, MA, USA) to the skin. We also included animal groups treated with only petroleum
(§30) 612 jelly or with 2% commercial mupirocin ointment as negative and positive controls, respectively.
(§31) 613 For pain management, we used the analgesic buprenorphine SR (0.05 mg/kg).
(§32) 614 After 24 h of treatment, we euthanized the animals, separated the skin from the underlying
(§33) 615 fascia and muscle tissue, and excised about 2 cm2 of skin from the infected area. We ground the
(§34) 616 skin in 1ml of PBS buffer (Gibco, MD, USA). We serially diluted 100 µl of the solution in PBS
(§35) 617 and plated it on Remel™ TSA plates (Fisher, MA, USA) to estimate viable colony counts after 18
(§36) 618 h of incubation at 37 °C. Further, we added 10 µl of EDTA-Free, protease inhibitor cocktail Set III
(§37) 619 (Millipore Sigma, MA, USA) to 500 µl of the ground skin PBS solution for cytokine estimation.
(§38) 620 The Cytokine Core, LLC (Indianapolis, IN, USA) performed the cytokine concentration analysis

[4] = tested on: S. aureus MW2 skin infection; assay: Skin-abraded murine infection, established infection model, bacterial load; type: in vivo, mice; set-up: Bacterial load from skin specimens, established infection model / bacterial load in skin, Sup. Fig. 12: unit not given here; conditions: for Bacterial load from skin specimens, established infection model: 2% ointment 24 hours after infection; for bacterial load in skin, Sup. Fig. 12: 2%, mice
Description: as §17, §18, §19, §20, §21, §22, §23, §24, §25, §26, §27, §28, §29, §30, §31, §32, §33, §34, §35, §36, §37, §38

S. aureus MW2 = assay: Minimal inhibitory concentration (MIC) assay, broth microdilution; type: cell-based, Staphylococcus aureus; conditions: S. aureus MW2; broth microdilution, TSB, 1 × 10^6 CFU/ml, 37°C 18 h, OD600, duplicate
Description: 300 Synthesis of peptides
302 Piscataway, NJ, USA).
as §1, §2, §3, §4, §5

[5] = HPLC retention time on C18 reverse-phase column; type: physicochemical
Text: Table 1 Physical parameters and minimal inhibitory concentrations of citropin 1.1-derived peptides against S. aureus MW2 | column: rT^D (min)

O=C(O)c1cn(C2CC2)c2cc(N3CCNCC3)c(F)cc2c1=O [Ciprofloxacin]
Reduction of MRSA persister cells [1]: did not have any effect

Oc1c(Cl)cc(Cl)cc1Sc1cc(Cl)cc(Cl)c1O [bithionol]
Reduction of VRSA persister cells [2]: 1.5 logs
Reduction of exponentially growing VRSA [2]: 1.0 logs
Reduction of MRSA persister cells [1]: 1.5 logs

CNC(C)C1CCC(N)C(OC2C(N)CC(N)C(OC3OCC(C)(O)C(NC)C3O)C2O)O1 (centres unmarked) [gentamicin, reference compound]
HepG2 cell viability, Sup. Fig. 4B (HepG2 cells; 4 μg/ml, replicate 1): 100.314
HepG2 cell viability, Sup. Fig. 4B (HepG2 cells; 4 μg/ml, replicate 2): 105.383
HepG2 cell viability, Sup. Fig. 4B (HepG2 cells; 4 μg/ml, replicate 3): 105.587
HepG2 cell viability, Sup. Fig. 4B (HepG2 cells; 8 μg/ml, replicate 1): 101.846
HepG2 cell viability, Sup. Fig. 4B (HepG2 cells; 8 μg/ml, replicate 2): 103.015
HepG2 cell viability, Sup. Fig. 4B (HepG2 cells; 8 μg/ml, replicate 3): 101.846
HepG2 cell viability, Sup. Fig. 4B (HepG2 cells; 16 μg/ml, replicate 1): 102.511
HepG2 cell viability, Sup. Fig. 4B (HepG2 cells; 16 μg/ml, replicate 2): 103.671
HepG2 cell viability, Sup. Fig. 4B (HepG2 cells; 16 μg/ml, replicate 3): 100.107
HepG2 cell viability, Sup. Fig. 4B (HepG2 cells; 32 μg/ml, replicate 1): 102.999
HepG2 cell viability, Sup. Fig. 4B (HepG2 cells; 32 μg/ml, replicate 2): 106.118
HepG2 cell viability, Sup. Fig. 4B (HepG2 cells; 32 μg/ml, replicate 3): 103.265
HepG2 cell viability, Sup. Fig. 4B (HepG2 cells; 64 μg/ml, replicate 1): 103.75
HepG2 cell viability, Sup. Fig. 4B (HepG2 cells; 64 μg/ml, replicate 2): 104.801
HepG2 cell viability, Sup. Fig. 4B (HepG2 cells; 64 μg/ml, replicate 3): 97.7499
HepG2 cell viability, Sup. Fig. 4B (HepG2 cells; 128 μg/ml, replicate 1): 104.41
HepG2 cell viability, Sup. Fig. 4B (HepG2 cells; 128 μg/ml, replicate 2): 112.88
HepG2 cell viability, Sup. Fig. 4B (HepG2 cells; 128 μg/ml, replicate 3): 101.795

CC(=O)NC[C@H]1CN(c2ccc(N3CCOCC3)c(F)c2)C(=O)O1 [linezolid]
Reduction of VRSA persister cells [2]: no impact
Reduction of exponentially growing VRSA [2]: 0.7 logs

C/C(=C\C(=O)OCCCCCCCCC(=O)O)C[C@@H]1OC[C@H](C[C@@H]2O[C@H]2[C@@H](C)[C@H](C)O)[C@@H](O)[C@H]1O [mupirocin, reference compound]
Bacterial load from skin specimens, prophylactic model ([3]; animal 1): 500000
Bacterial load from skin specimens, prophylactic model ([3]; animal 2): 380952
Bacterial load from skin specimens, prophylactic model ([3]; animal 3): 320000
Bacterial load from skin specimens, prophylactic model ([3]; animal 4): 47058.8
Bacterial load from skin specimens, prophylactic model ([3]; animal 5): 200000
Bacterial load from skin specimens, prophylactic model ([3]; animal 6): 34782.6
Bacterial load from skin specimens, prophylactic model ([3]; animal 7): 176000
Bacterial load from skin specimens, prophylactic model ([3]; animal 8): 533333
Bacterial load from skin specimens, prophylactic model ([3]; animal 9): 769231
Bacterial load from skin specimens, prophylactic model ([3]; animal 10): 1538462
Bacterial load from skin specimens, prophylactic model ([3]; animal 11): 289655
Bacterial load from skin specimens, prophylactic model ([3]; animal 12): 252632
Reduction of S. aureus MW2 burden vs vehicle, prophylactic model ([3]; 2% w/w ointment, single treatment 10 minutes after inoculation, n = 12): 2.8 log
Bacterial load from skin specimens, established infection model ([4]; animal 1): 5546493
Bacterial load from skin specimens, established infection model ([4]; animal 2): 5663717
Bacterial load from skin specimens, established infection model ([4]; animal 3): 38314176
Bacterial load from skin specimens, established infection model ([4]; animal 4): 4793289
Bacterial load from skin specimens, established infection model ([4]; animal 5): 8342990
Bacterial load from skin specimens, established infection model ([4]; animal 6): 7083333
Bacterial load from skin specimens, established infection model ([4]; animal 7): 21857924
Bacterial load from skin specimens, established infection model ([4]; animal 8): 14962594
Reduction of S. aureus MW2 vs vehicle, established infection model ([4]; 2% w/w ointment, single dose 24 hours after inoculation, n = 8): 2.4 log
bacterial load in skin, Sup. Fig. 12 ([4]; animal 1): 84745.8
bacterial load in skin, Sup. Fig. 12 ([4]; animal 2): 264317
bacterial load in skin, Sup. Fig. 12 ([4]; animal 3): 520833
bacterial load in skin, Sup. Fig. 12 ([4]; animal 4): 633914
bacterial load in skin, Sup. Fig. 12 ([4]; animal 5): 864198
bacterial load in skin, Sup. Fig. 12 ([4]; animal 6): 285714
bacterial load in skin, Sup. Fig. 12 ([4]; animal 7): 1465201
bacterial load in skin, Sup. Fig. 12 ([4]; animal 8): 754717

H-GLFDVIKKLLSVI-NH2 [CIT-5]
MIC SA (S. aureus MW2): > 32 µg/mL
rT (HPLC retention time) [5]: 22.300 min

H-GLFDVIKKVASVI-NH2 [CIT-1]
MIC SA (S. aureus MW2): > 32 µg/mL
rT (HPLC retention time) [5]: 17.570 min

H-GLFKVIKKLLSVI-NH2 [CIT-7]
MIC SA (S. aureus MW2): 4 µg/mL
rT (HPLC retention time) [5]: 19.956 min

H-GLFKVIKKVAKVI-NH2 [CIT-4]
MIC SA (S. aureus MW2): > 32 µg/mL
rT (HPLC retention time) [5]: 17.776 min

H-GLFKVIKKVASVI-NH2 [CIT-3]
MIC SA (S. aureus MW2): > 32 µg/mL
rT (HPLC retention time) [5]: 17.400 min

H-GLFSVIKKLLSVI-NH2 [CIT-6]
MIC SA (S. aureus MW2): 2 µg/mL
rT (HPLC retention time) [5]: 23.302 min

H-GLFSVIKKVASVI-NH2 [CIT-2]
MIC SA (S. aureus MW2): > 32 µg/mL
rT (HPLC retention time) [5]: 15.711 min
